In patent EP2878677A1, “Activators of protein phosphatase 5” (Deutsches Zentrum für Neurodegenerative Erkrankungen e.V. …, priority 2013, dated 2015):

Molecular target: T1, PPH-5 (Caenorhabditis elegans, UniProt Q9NES8)
T1 construct: made in house
T1 sequence (Q9NES8 1-496): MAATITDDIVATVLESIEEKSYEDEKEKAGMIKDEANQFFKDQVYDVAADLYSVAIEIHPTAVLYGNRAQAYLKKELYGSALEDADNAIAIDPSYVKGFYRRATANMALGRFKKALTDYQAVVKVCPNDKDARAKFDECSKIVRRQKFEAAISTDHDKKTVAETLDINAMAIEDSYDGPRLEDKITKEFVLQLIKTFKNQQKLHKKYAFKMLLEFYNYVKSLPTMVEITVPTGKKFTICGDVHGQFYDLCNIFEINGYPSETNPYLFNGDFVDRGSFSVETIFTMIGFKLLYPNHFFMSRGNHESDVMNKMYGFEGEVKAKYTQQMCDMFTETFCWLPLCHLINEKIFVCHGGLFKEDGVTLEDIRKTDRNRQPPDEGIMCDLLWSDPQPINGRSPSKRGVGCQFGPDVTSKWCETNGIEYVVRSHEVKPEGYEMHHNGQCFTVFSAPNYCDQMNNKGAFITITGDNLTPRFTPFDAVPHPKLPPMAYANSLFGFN
Assay: pNPP-based phosphatase assay with nematode PPH-5
Format: biochemical, C. elegans
Conditions: for Kd: apparent KD-value in the pNPP-based assay, 20 °C; for effect on the enzymatic activity of PPH-5 in the compound screen: initial screen of 15,000 compounds, pNPP, P5SAs at 50 ng/mL
Description: At some instances, the present application refers to "measuring the enzymatic activity" of an enzyme. As used herein, this means that a measured value that is proportional to or reflects the enzymatic activity of that enzyme is measured. For example, the present application may refer to "measuring the enzymatic activity of protein phosphatase 5". Typically, this means that an in vitro reaction of protein phosphatase 5 with a suitable substrate is carried out.As the substrate para-nitrophenyl phosphate (pNPP) is used. The conditions for the phosphatase reaction are 40 mM HEPES/KOH, 20 mM KCl, 5 mM MnCl2, 1 mM DTT, pH 7.5. The reaction is carried out at 20° C. The starting concentration of pNPP is 60 mM. The concentration of the compound to be tested, if present, is in the range of 50-500 nM, preferably in the range of 100-250 nM, more preferably 50, 250 or 500 nM, more preferably 250 nM. As phosphatase, bacterially expressed and purified phosphatase is used. The concentration of the phosphatase in the reaction is 30 nM. The rate at which the dephosphorylation of this substrate proceeds is monitored, typically by measuring the rate of formation of the reaction product by spectroscopic measurements (dephosphorylation of pNPP, e.g., results in generation of p-nitrophenol, a chromogenic product with strong absorbance at about 410 nm (extinction coefficient ε = 15100 cm^-1M^-1), thus allowing to monitor generation of the reaction product by monitoring the absorbance at 410 nm). If the reaction is carried out in the presence of an excess of substrate, the initial velocity at which the reaction product is generated (i.e. the slope of the initial phase of the curve in a graph plotting the absorbance at 410 nm over time) is proportional to the enzymatic activity of protein phosphatase 5under the specific reaction conditions used. Alternatively, after starting the phosphatase reaction the reaction may be allowed to proceed for a defined incubation period (usually 30 minutes), then the reaction is stopped (for example by addition of a small volume of 1 M NaOH), and the absorbance at 410 nm is measured. Upon subtraction of the absorbance of a negative control (a reaction carried out with a non-functional, for example pre-boiled, phosphatase), the obtained value is proportional to the enzymatic activity of protein phosphatase 5 under the specific reaction conditions used (since the reaction is carried out in the presence of an excess of substrate and the incubation period is chosen such that the reaction is stopped while it is still in the quasi-linear Phase). Phosphatase activity was followed by the conversion of para-nitrophenyl phosphate (pNPP) to para-nitophenole and absorption of the product at 410 nm (ε: 15100 cm^-1 M^-1) in a Varian Cary 100 spectrophotometer (Agilent Technologies, Boeblingen, Germany). The reaction was measured in 40 mM HEPES/KOH, 20 mM KCl, 5 mM MnCl2, 1 mM DTT, pH 7.5 and 60 mM pNPP at 20 °C if not indicated otherwise. Phosphatase concentration ranged from 50 to 500 nM in the assay. If indicated, Hsp90/DAF-21 peptide was supplemented in the assay at a concentration of 60 μM. The protein phosphatase 5 is a highly regulated enzyme. The autoinhibition of the phosphatase is controlled by the N-terminal TPR domain and the C-terminal αJ helix, implying a complex mechanism to control the turnover rate (Yang et al., 2005). A compound screen was carried out to identify small molecules which can alter the activity of the phosphatase. The C. elegans homolog of protein phosphatase 5 was used (activity of nematode protein phosphatase 5 (PPH-5) at 20 °C: ∼0.62 sec^-1; mammalian PP5: ∼0.12 sec^-1). The homology between nematode PPH-5 and human PP5 is pronounced with a sequence conservation of almost 80% (Figure 6). Using the substrate para-nitrophenyl phosphate (pNPP), a library of 15,000 compounds was analyzed. […]

| SMILES | fold activation ((sat.)) [fold] | Kd [µM] | effect on the enzymatic activity of PPH-5 in the compound screen | fold activation (at 714 µM) [fold] | influence of MEEVD peptide on affinity to PPH-5 (60 µM MEEVD peptide, titration by phosphatase assay) |
| --- | --- | --- | --- | --- | --- |
| FC(F)(F)c1c2c(nc3c(-c4ccc(Cl)cc4)cnn13)CCC2 [P5SA-1] | 3.7 | 13.3 ± 4.2 | activating effect | – | – |
| COc1ccc(-c2nc(Cc3ccc(Cl)cc3)no2)cc1OC [P5SA-2] | 9.6 | 7.8 ± 1.4 | activating effect | – | – |
| CN1CCc2c(sc(-n3cccc3)c2CNC(=O)NC23CC4CC(CC(C4)C2)C3)C1 [P5SA-3] | – | – | activating effect | 4.0 | – |
| O=c1cc2nc(-c3ccc(F)cc3)nc(SCc3ccc(Br)cc3)n2[nH]1 [P5SA-4] | 7.8 | 25.7 ± 5.5 | activating effect | – | – |
| CNC(=O)c1c(NC(=O)COCC(=O)Nc2sc3c(c2C(=O)NC)CCC3)sc2c1CCC2 [P5SA-5] | 8.4 | 6.4 ± 1.8 | activating effect | – | minor influence |
